{"source": "patent US20020015941A1", "about": "“Method for treatment of neurodegenerative diseases” (The General Hospital Corporation, priority 2000, published 2002)", "key": {"[1]": {"system": "IP3-elicited release of Ca2+ from internal stores", "settings": "literature; cited from earlier work"}, "[2]": {"system": "capacitative calcium entry (CCE)", "settings": "literature; cited from earlier work"}, "[3]": {"system": "capacitative Ca2+ entry (CCE) in SY5Y cells", "format": "cell-based, human"}, "[4]": {"system": "voltage-operated Ca2+ channels", "settings": "literature; cited from earlier work"}, "[5]": {"system": "total Aβ and Aβ42 in D257A-PS1 CHO cells", "assay": "Aβ generation in CHO cells stably expressing APP and D257A-PS1", "format": "cell-based, Chinese hamster"}, "[6]": {"system": "CHO or 293 cells stably expressing human APP"}, "[7]": {"system": "capacitative calcium entry (CCE) in CHO cells", "assay": "CCE by ratiometric Ca2+ imaging in CHO cells", "format": "cell-based, Chinese hamster"}, "[8]": {"system": "Aβ42/Aβtotal in CHO cells stably overexpressing human APP", "assay": "Aβ sandwich ELISA, CHO cells stably overexpressing human APP", "format": "cell-based, Chinese hamster", "settings": "CHO-APP, indicated concentrations for 12 hours (FIG. 5C)"}, "[9]": {"system": "secreted APP-α in 293 cells stably expressing human APP", "assay": "Secreted APPs-α by immunoprecipitation (22C11) and blot (6E10)", "format": "cell-based", "settings": "SKF96365 treatment, 12 hour"}, "[10]": {"system": "ICRAC channels in wild-type PS1 CHO cells", "assay": "ICRAC by whole-cell patch clamp in stable CHO cells", "format": "cell-based, Chinese hamster", "settings": "wild-type PS1 CHO cells pretreated with 10 μM SKF96365 for 30 min"}, "CHO and CHO-APP cells": {"system": "CHO and CHO-APP cells", "settings": "Aβ42 pre-treatment", "experimental": "The Aβ42 peptides were obtained from Bachem and dissolved in PBS at 1 mg/ml directly before use."}}, "note": "Read-outs that look alike come from different tables or passages of the source."}
{"compound": "C=C1[C@@H](C)[C@H]2[C@H](Cc3ccccc3)NC(=O)[C@]23[C@H](OC(C)=O)/C=C/[C@@](C)(O)C(=O)[C@@H](C)C/C=C/[C@H]3[C@@H]1O", "note": "[CytoD, Cytochalasin D]", "values": [{"measurement": "IP3-elicited release of Ca2+ from internal stores", "setting": "[1]", "value": "impairs"}, {"measurement": "effect on CCE", "setting": "[2]", "value": "no effect"}, {"measurement": "Ca2+ influx in wild-type PS1 or M146L-PS1 cells", "setting": "[3]", "value": "essentially no effect"}]}
{"compound": "COc1ccc(CCCOC(Cn2ccnc2)c2ccc(OC)cc2)cc1", "note": "(centres unmarked) [SKF96365]", "values": [{"measurement": "effect on voltage-operated Ca2+ channels", "setting": "[4]", "value": "minor inhibitory effect"}, {"measurement": "generation of Aβ42 in D257A-PS1 cells", "setting": "[5]; 50 μM SKF96365", "value": "did not restore"}, {"measurement": "generation of total Aβ in D257A-PS1 cells", "setting": "[5]; 50 μM SKF96365", "value": "did not restore"}, {"measurement": "relative Aβ42 levels as share of total Aβ levels in D257A cells", "setting": "[5]; following treatment with SKF96365 (50 μM)", "value": "greater than 90%"}, {"measurement": "cell viability", "setting": "[6]", "value": "did not alter"}, {"measurement": "degree of CCE reduction in D257A-PS1 cells compared to wild-type PS1 cells", "setting": "[7]; 50 μM SKF96365, 12 hrs", "value": "much less"}, {"measurement": "Ca2+ influx (CCE) after pretreatment", "setting": "[3]; 100 μM SKF96365 1 hr, 100 nM CalyA 20 min, nifedipine 1 μM, ω-conotoxin GVIA 2 μM, prior to induction of CCE", "value": "blocked"}, {"measurement": "Aβ42-promoting effect versus concentration", "setting": "[8]", "value": "dose-dependent"}, {"measurement": "secreted APP-α levels", "setting": "[9]", "value": "did not alter"}, {"measurement": "ICRAC (peak current density)", "setting": "[10]", "value": "virtually eliminated"}]}
{"compound": "Aβ42: 42-amino acid version of amyloid β-peptide, obtained from Bachem", "values": [{"measurement": "CCE response after Aβ42 pre-treatment", "setting": "[7]; CHO and CHO-APP cells pre-incubated with 20 PM Aβ42 for 3 hours", "value": "no detectable effect"}, {"measurement": "cell viability", "setting": "CHO and CHO-APP cells", "value": "not affected"}]}
{"compound": "Calyculin A", "values": [{"measurement": "Ca2+ influx (CCE) after pretreatment", "setting": "[3]", "value": "blocked"}]}
{"compound": "ω-conotoxin GVIA", "values": [{"measurement": "Ca2+ influx (CCE) after pretreatment", "setting": "[3]", "value": "virtually no effect"}]}
